Test results from patent US11878970B2, “Allosteric chromenone inhibitors of phosphoinositide 3-kinase (PI3K) for the treatment of disease” (Petra Pharma Corporation, priority 2021, dated 2024).

Experiments:
[1] = target: T1, PI3K-α (PIK3CA) wild-type (WT), p110α/p85α complex (Homo sapiens, UniProt P42336); assay: PI3K-alpha kinase (PIK3CA) biochemical activity, ADP-Glo, wild-type; conditions: Soy PI lipid substrate
T1 construct: Recombinant, catalytically active human full length PIK3KA Wild-type and H1047R mutant; 6×His (N); purchased EMD Millipore Sigma 14-602M
Method in brief: (§1)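 ADP formation measured by ADP-Glo luminescence after reaction at 27 °C to about 10% ATP turnover, using 20 uM ATP, 50 uM PIP2diC8 or soy PI lipid, HEPES pH 7.4 with MgCl2. Enzyme (1-5 nM WT or H1047R p110α/p85α) and compound preincubated 1 h first; 10-point 1:3 curves fitted four-parameter for IC50.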

[2] = target: T2, PI3K-α (PIK3CA) H1047R mutant, p110α/p85α complex (Homo sapiens, UniProt P42336, H1047R); assay: PI3K-alpha kinase (PIK3CA) biochemical activity, ADP-Glo, H1047R mutant; conditions: Soy PI lipid substrate
T2 construct: Recombinant, catalytically active human full length PIK3KA Wild-type and H1047R mutant; 6×His (N); purchased EMD Millipore Sigma 14-792M
Method in brief: as §1

[3] = target: PI3K-α (PIK3CA) in MDA-MB-453 cells (Homo sapiens, UniProt P42336); assay: PI3K-alpha kinase (PIK3CA) in vitro cell based assay, MDA-MB-453 cells, SureFire Ultra AlphaLisa; conditions: read-out: PI3K-α (PIK3CA) in vitro cell based assay IC50
Method in brief: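 Cells treated 3 h in serum-free MEM with 1 μg/mL insulin, 10-point 1:3 series in 0.3% DMSO, then lysed for SureFire Ultra AlphaLisa read-out. Inhibition normalized to DMSO (max) and 1 μM GDC-0032 (min); duplicate averages fitted by 4-parameter logistic for relative IC50.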

T2 sequence (P42336 whole entry H1047R): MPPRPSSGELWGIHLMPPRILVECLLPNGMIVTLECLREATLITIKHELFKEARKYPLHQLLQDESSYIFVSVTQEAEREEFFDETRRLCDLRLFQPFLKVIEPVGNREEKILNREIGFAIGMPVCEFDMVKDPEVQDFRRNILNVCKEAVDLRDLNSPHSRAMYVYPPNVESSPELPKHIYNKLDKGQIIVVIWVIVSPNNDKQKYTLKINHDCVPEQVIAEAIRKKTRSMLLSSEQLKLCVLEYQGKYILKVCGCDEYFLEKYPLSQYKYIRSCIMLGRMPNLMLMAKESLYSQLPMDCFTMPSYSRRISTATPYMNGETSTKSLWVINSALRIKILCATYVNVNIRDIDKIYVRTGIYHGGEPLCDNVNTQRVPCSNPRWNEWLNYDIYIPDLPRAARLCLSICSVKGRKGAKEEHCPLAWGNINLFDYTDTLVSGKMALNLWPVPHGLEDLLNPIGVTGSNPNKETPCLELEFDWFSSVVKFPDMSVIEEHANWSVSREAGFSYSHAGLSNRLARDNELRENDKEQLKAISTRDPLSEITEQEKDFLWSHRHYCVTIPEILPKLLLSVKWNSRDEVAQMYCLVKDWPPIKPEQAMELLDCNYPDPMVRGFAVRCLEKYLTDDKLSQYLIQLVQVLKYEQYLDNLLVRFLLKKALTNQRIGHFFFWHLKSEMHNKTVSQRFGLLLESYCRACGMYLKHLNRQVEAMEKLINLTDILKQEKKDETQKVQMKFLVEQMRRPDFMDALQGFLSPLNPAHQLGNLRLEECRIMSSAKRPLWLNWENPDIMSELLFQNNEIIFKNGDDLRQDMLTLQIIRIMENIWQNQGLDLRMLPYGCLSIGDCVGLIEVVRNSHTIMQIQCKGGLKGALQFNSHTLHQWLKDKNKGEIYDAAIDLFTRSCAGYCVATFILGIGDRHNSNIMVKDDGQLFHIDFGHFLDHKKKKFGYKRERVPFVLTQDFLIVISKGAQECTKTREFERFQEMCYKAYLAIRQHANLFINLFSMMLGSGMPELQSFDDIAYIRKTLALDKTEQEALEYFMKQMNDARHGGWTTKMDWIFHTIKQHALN
T2 sequence (P27986 whole entry partner): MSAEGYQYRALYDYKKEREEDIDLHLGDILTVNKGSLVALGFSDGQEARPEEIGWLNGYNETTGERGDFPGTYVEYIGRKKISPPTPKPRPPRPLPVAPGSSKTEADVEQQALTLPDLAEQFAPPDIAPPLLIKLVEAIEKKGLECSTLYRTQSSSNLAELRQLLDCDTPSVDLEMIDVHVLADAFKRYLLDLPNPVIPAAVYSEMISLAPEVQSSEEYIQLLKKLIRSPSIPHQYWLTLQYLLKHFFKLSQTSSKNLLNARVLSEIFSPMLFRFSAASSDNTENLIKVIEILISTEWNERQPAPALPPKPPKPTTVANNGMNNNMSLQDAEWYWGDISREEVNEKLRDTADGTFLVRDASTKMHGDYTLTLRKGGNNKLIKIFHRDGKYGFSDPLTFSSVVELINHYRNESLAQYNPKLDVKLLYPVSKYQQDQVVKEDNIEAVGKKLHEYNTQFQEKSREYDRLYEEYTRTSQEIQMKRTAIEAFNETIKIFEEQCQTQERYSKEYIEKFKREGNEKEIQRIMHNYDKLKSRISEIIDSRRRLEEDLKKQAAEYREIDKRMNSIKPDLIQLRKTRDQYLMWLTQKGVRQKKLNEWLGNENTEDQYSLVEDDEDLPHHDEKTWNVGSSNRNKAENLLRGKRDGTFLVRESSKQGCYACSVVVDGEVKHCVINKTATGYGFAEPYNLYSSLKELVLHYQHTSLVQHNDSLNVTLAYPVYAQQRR
PI3K-α (PIK3CA) in MDA-MB-453 cells, sequence (P27986 2-724): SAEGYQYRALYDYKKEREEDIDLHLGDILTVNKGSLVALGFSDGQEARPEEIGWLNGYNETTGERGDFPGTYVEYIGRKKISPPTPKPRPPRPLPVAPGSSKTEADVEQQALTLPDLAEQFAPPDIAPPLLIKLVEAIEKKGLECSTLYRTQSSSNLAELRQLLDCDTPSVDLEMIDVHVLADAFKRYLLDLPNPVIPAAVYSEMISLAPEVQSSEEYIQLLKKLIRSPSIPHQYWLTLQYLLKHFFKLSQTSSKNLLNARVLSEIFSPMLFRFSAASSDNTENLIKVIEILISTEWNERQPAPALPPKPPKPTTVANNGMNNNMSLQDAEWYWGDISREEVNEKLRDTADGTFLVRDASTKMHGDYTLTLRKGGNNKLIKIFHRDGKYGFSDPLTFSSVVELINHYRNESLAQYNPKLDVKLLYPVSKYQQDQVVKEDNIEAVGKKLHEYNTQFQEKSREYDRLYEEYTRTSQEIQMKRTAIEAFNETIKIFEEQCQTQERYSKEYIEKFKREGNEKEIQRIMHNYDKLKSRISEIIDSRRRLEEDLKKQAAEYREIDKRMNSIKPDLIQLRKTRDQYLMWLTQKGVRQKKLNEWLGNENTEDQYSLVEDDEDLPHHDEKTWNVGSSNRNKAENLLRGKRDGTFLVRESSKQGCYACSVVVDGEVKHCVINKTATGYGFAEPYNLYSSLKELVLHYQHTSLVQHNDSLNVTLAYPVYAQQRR
PI3K-α (PIK3CA) in MDA-MB-453 cells, sequence (P42336 whole entry): as the sequence (P42336 whole entry H1047R) above, with R1047H counted along it

What does the source list for `Cc1cc(C(C)Nc2cccc(F)c2C(=O)O)c2oc(-c3cc(C)c4nn(C)cc4c3)cc(=O)c2c1` (single isomer, unassigned) [Example 190, 2-[1-[2-(2,7-Dimethylindazol-5-yl)-6-methyl-4-oxo-chromen-8-yl]ethylamino]-6-fluoro-benzoic acid]?
IC50 [1]: 500 to 1000 nM; IC50 [2]: < 500 nM; IC50 [3]: 50 to 100 nM

Which results are given for `Cc1cc([C@@H](C)Nc2cccc(F)c2C(=O)O)c2oc(-c3ccc4cc[nH]c4n3)cc(=O)c2c1` [Example 241, 2-Fluoro-6-[[(1R)-1-[6-methyl-4-oxo-2-(1H-pyrrolo[2,3-b]pyridin-6-yl)chromen-8-yl]ethyl]amino]benzoic acid]?
IC50 [1]: 500 to 1000 nM; IC50 [2]: < 500 nM; IC50 [3]: 50 to 100 nM

Which results are given for `Cc1cc(C(C)Nc2ccc(Cl)nc2C(=O)O)c2oc(-c3cc(C)c4nn(C)cc4c3)cc(=O)c2c1` (single isomer, unassigned) [Example 188, 6-Chloro-3-[1-[2-(2,7-dimethylindazol-5-yl)-6-methyl-4-oxo-chromen-8-yl]ethylamino]pyridine-2-carboxylic acid]?
IC50 [1]: 500 to 1000 nM; IC50 [2]: < 500 nM; IC50 [3]: < 50 nM

How did the IC50 [1] turn out when `Cc1cc(C(C)Nc2ccccc2C(=O)O)c2oc(-c3ccc4oc(=O)[nH]c4c3)cc(=O)c2c1` (single isomer, unassigned) [Example 24, 2-[1-[6-Methyl-4-oxo-2-(2-oxo-3H-1,3-benzoxazol-5-yl)chromen-8-yl]ethylamino]benzoic acid] was run?
Its IC50 is 1000 to 5000 nM.

What about the IC50 [2] of the same compound?
The IC50 was under 500 nM.

What about the IC50 [3] of the same compound?
The IC50 was 50 to 100 nM.

With `Cc1cc([C@@H](C)Nc2cccnc2C(=O)O)c2oc(-c3cc(C)c4nn(C)cc4c3)cc(=O)c2c1` [Example 231, 3-[[(1R)-1-[2-(2,7-Dimethylindazol-5-yl)-6-methyl-4-oxo-chromen-8-yl]ethyl]amino]pyridine-2-carboxylic acid] as the compound, how does the IC50 [1] read?
Its IC50 is over 10000 nM.

What about the IC50 [2] of the same compound?
The IC50 was 1000 to 5000 nM.

And the IC50 [3]?
Its IC50 is 100 to 500 nM.

Which IC50 [1] does the source give for `Cc1cc([C@@H](C)Nc2ccc(Cl)nc2C(=O)O)c2oc(-c3ccc4nc(C)sc4c3)c(C)c(=O)c2c1` [Example 246, 6-Chloro-3-[[(1R)-1-[3,6-dimethyl-2-(2-methyl-l,3-benzothiazol-6-yl)-4-oxo-chromen-8-yl]ethyl]amino]pyridine-2-carboxylic acid] here?
The IC50 was 500 to 1000 nM.

What about the IC50 [2] of the same compound?
Its IC50 is under 500 nM.

What about the IC50 [3] of the same compound?
The IC50 was under 50 nM.

What does the source list for `Cc1cc([C@@H](C)Nc2ccc(Cl)cc2C(=O)O)c2oc(-c3ccc4cnn(C)c4c3)cc(=O)c2c1` [Example 237, 5-Chloro-2-[[(1R)-1-[6-methyl-2-(1-methylindazol-6-yl)-4-oxo-chromen-8-yl]ethyl]amino]benzoic acid]?
IC50 [1]: 500 to 1000 nM; IC50 [2]: < 500 nM; IC50 [3]: 50 to 100 nM

What does the source list for `CC(Nc1ccccc1C(=O)O)c1cc(F)cc2c(=O)cc(-c3ccc4nn(C)cc4c3)oc12` (single isomer, unassigned) [Example 55, 2-[1-[6-Fluoro-2-(2-methylindazol-5-yl)-4-oxo-chromen-8-yl]ethylamino]benzoic acid]?
IC50 [1]: 1000 to 5000 nM; IC50 [2]: < 500 nM; IC50 [3]: < 50 nM

For `Cc1cc(C(C)Nc2ccccc2C(=O)O)c2oc(-c3ccn4cc(C)nc4c3)cc(=O)c2c1` (single isomer, unassigned) [Example 3, 2-[1-[6-Methyl-2-(2-methylimidazo[1,2-a]pyridin-7-yl)-4-oxo-chromen-8-yl]ethylamino]benzoic acid], which IC50 [1] is on record?
The IC50 was 1000 to 5000 nM.

And the IC50 [2]?
The IC50 was under 500 nM.

And the IC50 [3]?
The IC50 was 50 to 100 nM.

Which IC50 [1] does the source give for `Cc1cc(C(C)Nc2ccccc2C(=O)O)c2oc(-c3ccc4nn(C)cc4c3)cc(=O)c2c1` (single isomer, unassigned) [Example 8, 2-[1-[6-Methyl-2-(2-methylindazol-5-yl)-4-oxo-chromen-8-yl]ethylamino]benzoic acid] here?
Its IC50 is 500 to 1000 nM.

What about the IC50 [2] of the same compound?
Its IC50 is under 500 nM.

What about the IC50 [3] of the same compound?
Its IC50 is under 50 nM.

Which IC50 [1] does the source give for `Cc1cc(C(C)Nc2ccccc2C(=O)O)c2oc(-c3cc4ccncc4o3)cc(=O)c2c1` (single isomer, unassigned) [Example 40, 2-[1-(2-Furo[2,3-c]pyridin-2-yl-6-methyl-4-oxo-chromen-8-yl)ethylamino]benzoic acid] here?
The IC50 was 5000 to 10000 nM.

And the IC50 [2]?
Its IC50 is 1000 to 5000 nM.

And the IC50 [3]?
The IC50 was 100 to 500 nM.

How did the IC50 [1] turn out when `COc1ccc2cc(-c3cc(=O)c4cc(C)cc([C@@H](C)Nc5ccccc5C(=O)O)c4o3)cc(C)c2n1` [Example 248, 2-[[(1R)-1-[2-(2-Methoxy-8-methyl-6-quinolyl)-6-methyl-4-oxo-chromen-8-yl]ethyl]amino]benzoic acid] was run?
The IC50 was 1000 to 5000 nM.

And the IC50 [2]?
The IC50 was 500 to 1000 nM.

What about the IC50 [3] of the same compound?
Its IC50 is 100 to 500 nM.

`Cc1cc(C(C)Nc2ccccc2C(=O)O)c2oc(-c3cccc4cn(C)nc34)cc(=O)c2c1` (single isomer, unassigned) [Example 116, 2-[1-[6-Methyl-2-(2-methylindazol-7-yl)-4-oxo-chromen-8-yl]ethylamino]benzoic acid] was tested. Which IC50 [1] did it give?
The IC50 was over 10000 nM.

What about the IC50 [2] of the same compound?
Its IC50 is under 500 nM.

And the IC50 [3]?
Its IC50 is 100 to 500 nM.

For `Cc1cc(C(C)Nc2ccccc2C(=O)O)c2oc(-c3ccc4c(cnn4C)c3)c(C)c(=O)c2c1` (single isomer, unassigned) [Example 150, 2-[1-[3,6-Dimethyl-2-(1-methylindazol-5-yl)-4-oxo-chromen-8-yl]ethylamino]benzoic acid], which IC50 [1] is on record?
The IC50 was under 500 nM.

And the IC50 [2]?
The IC50 was under 500 nM.

What about the IC50 [3] of the same compound?
Its IC50 is under 50 nM.

For `Cc1cc(C(C)Nc2ccc(Cl)nc2C(=O)O)c2oc(-c3ccc4c(cnn4C)c3)cc(=O)c2c1` (single isomer, unassigned) [Example 217, 6-Chloro-3-[1-[6-methyl-2-(1-methylindazol-5-yl)-4-oxo-chromen-8-yl]ethylamino]pyridine-2-carboxylic acid], which IC50 [1] is on record?
Its IC50 is 1000 to 5000 nM.

And the IC50 [2]?
The IC50 was 1000 to 5000 nM.

What about the IC50 [3] of the same compound?
Its IC50 is over 500 nM.

Which IC50 [1] does the source give for `Cc1cc([C@@H](C)Nc2ccccc2C(=O)O)c2oc(-c3ccc4nc(C)oc4n3)c(C)c(=O)c2c1` [Example 256, 2-[[(1R)-1-[3,6-Dimethyl-2-(2-methyloxazolo[5,4-b]pyridin-5-yl)-4-oxo-chromen-8-yl]ethyl]amino]benzoic acid] here?
The IC50 was 500 to 1000 nM.

And the IC50 [2]?
Its IC50 is under 500 nM.

What about the IC50 [3] of the same compound?
Its IC50 is under 50 nM.

What does the source list for `Cc1cc(C(C)Nc2ccccc2C(=O)O)c2oc(-c3ccc4c(c3)CN(C)C4=O)cc(=O)c2c1` (single isomer, unassigned) [Example 32, 2-[1-[6-Methyl-2-(2-methyl-1-oxo-isoindolin-5-yl)-4-oxo-chromen-8-yl]ethylamino]benzoic acid]?
IC50 [1]: 5000 to 10000 nM; IC50 [2]: > 10000 nM; IC50 [3]: > 500 nM

With `Cc1cc(C(C)Nc2ccccc2C(=O)O)c2oc(-c3ccn4nncc4c3)cc(=O)c2c1` (single isomer, unassigned) [Example 58, 2-[1-[6-Methyl-4-oxo-2-(triazolo[1,5-a]pyridin-5-yl)chromen-8-yl]ethylamino]benzoic acid] as the compound, how does the IC50 [1] read?
Its IC50 is 1000 to 5000 nM.

And the IC50 [2]?
The IC50 was under 500 nM.

What about the IC50 [3] of the same compound?
The IC50 was 100 to 500 nM.

What does the source list for `CC(Nc1ccc(Cl)nc1C(=O)O)c1cc(C(F)(F)F)cc2c(=O)cc(-c3ccc4c(cnn4C)c3)oc12` (single isomer, unassigned) [Example 168, 6-Chloro-3-[1-[2-(1-methylindazol-5-yl)-4-oxo-6-(trifluoromethyl)chromen-8-yl]ethylamino]pyridine-2-carboxylic acid]?
IC50 [1]: < 500 nM; IC50 [2]: < 500 nM; IC50 [3]: 50 to 100 nM

For `Cc1cc(C(C)Nc2ccccc2C(=O)O)c2oc(-c3cc(C)c4nn(C)cc4c3)cc(=O)c2c1` (single isomer, unassigned) [Example 144, 2-[1-[2-(2,7-Dimethylindazol-5-yl)-6-methyl-4-oxo-chromen-8-yl]ethylamino]benzoic acid], which IC50 [1] is on record?
Its IC50 is 1000 to 5000 nM.

And the IC50 [2]?
The IC50 was under 500 nM.

And the IC50 [3]?
The IC50 was under 50 nM.

With `Cc1cc(C(C)Nc2ccccc2C(=O)O)c2oc(-c3cnn4cccnc34)cc(=O)c2c1` (single isomer, unassigned) [Example 33, 2-[1-(6-Methyl-4-oxo-2-pyrazolo[1,5-a]pyrimidin-3-yl-chromen-8-yl)ethylamino]benzoic acid] as the compound, how does the IC50 [1] read?
The IC50 was over 10000 nM.

What about the IC50 [2] of the same compound?
The IC50 was over 10000 nM.

And the IC50 [3]?
The IC50 was over 500 nM.

Which IC50 [1] does the source give for `Cc1cc(C(C)Nc2ccccc2C(=O)O)c2oc(-c3ccc4nc(C(F)(F)F)cn4c3)cc(=O)c2c1` (single isomer, unassigned) [Example 70, 2-[1-[6-Methyl-4-oxo-2-[2-(trifluoromethyl)imidazo[1,2-a]pyridin-6-yl]chromen-8-yl]ethylamino]benzoic acid] here?
Its IC50 is 1000 to 5000 nM.

And the IC50 [2]?
The IC50 was under 500 nM.

What about the IC50 [3] of the same compound?
Its IC50 is 50 to 100 nM.

How did the IC50 [1] turn out when `Cc1cc([C@@H](C)Nc2cccnc2C(=O)O)c2oc(-c3ccc4nn(C)cc4c3)cc(=O)c2c1` [Example 226, 3-[[(1R)-1-[6-Methyl-2-(2-methylindazol-5-yl)-4-oxo-chromen-8-yl]ethyl]amino]pyridine-2-carboxylic acid] was run?
The IC50 was 1000 to 5000 nM.

And the IC50 [2]?
Its IC50 is 500 to 1000 nM.

What about the IC50 [3] of the same compound?
The IC50 was 100 to 500 nM.

Which results are given for `Cc1cc(C(C)Nc2ccccc2C(=O)O)c2oc(-n3ncc4c(C)cccc43)cc(=O)c2c1` (single isomer, unassigned) [Example 88, 2-[1-[6-Methyl-2-(4-methylindazol-1-yl)-4-oxo-chromen-8-yl]ethylamino]benzoic acid]?
IC50 [1]: 500 to 1000 nM; IC50 [2]: < 500 nM; IC50 [3]: 100 to 500 nM

Which results are given for `Cc1cc(C(C)Nc2ccccc2C(=O)O)c2oc(-c3ccc4ccn(C)c4c3)cc(=O)c2c1` (single isomer, unassigned) [Example 158, 2-[1-[6-Methyl-2-(1-methylindol-6-yl)-4-oxo-chromen-8-yl]ethylamino]benzoic acid]?
IC50 [1]: 1000 to 5000 nM; IC50 [2]: < 500 nM; IC50 [3]: < 50 nM
